# System: U138 cells
# Test: MTT cell viability / cytotoxicity assay in U138 cells
# Procedure: Various drug combinations were incubated with U138 cells in cell culture media and the cells were then washed with PBS and added fresh media.
# [1] = therapeutic agent at 100 nM compared with non-toxic chemo-adjuvant O6-BG at 100 uM (FIG. 4)
structure (smiles),measurement,setting,value
"Nc1nc(OCc2ccccc2)c2nc[nH]c2n1 [O6-BG, O6-Benzylguanine]",cytotoxicity,free O6-BG 100 μg/ml (FIG. 6),not cytotoxic
same,cell viability,incubation with various concentrations of O6-BG (FIG. 3),some effect on cell viability at very high concentrations
C=CC(=O)Nc1cc2c(Nc3ccc(F)c(Cl)c3)ncnc2cc1OCCCN1CCOCC1 [canertinib],cell viability,[1],cell viability is lower
CC(=O)O[C@H]1C(=O)[C@@]2(C)[C@H]([C@H](OC(=O)c3ccccc3)[C@]3(O)C[C@H](OC(=O)[C@H](O)[C@@H](NC(=O)c4ccccc4)c4ccccc4)C(C)=C1C3(C)C)[C@]1(OC(C)=O)CO[C@@H]1C[C@@H]2O [paclitaxel],cell viability,[1],cell viability is lower

# From patent publication US20130236504A1, “Delivery System for Enhancing Drug Efficacy” (CLEMSON UNIVERSITY, priority 2012, published 2013)
